Measurements published in patent US7572436B1, “Thionin as an antineoplastic and immunostimulant” (priority 2000, dated 2009).
Where “and” joins values, the source holds several entries; their conditions need not be identical. Identical values can stand only once. Where no end group is shown, it is not given here.

Tested on: Balb C splenocytes
Experiment: Mitogen assay (^3H-thymidine uptake), murine splenocytes
Type: cell-based
Settings: for CPM of tritiated thymidine incorporated: Balb C splenocytes
Source text: Murine spleen cells or human peripheral blood lymphocytes (PBLS) were obtained aseptically as described herein for use in the mitogen assay. When murine splenocytes were used, they were first treated with red cell lysing buffer (0.17 M Tris, 0.144 NH4C1, pH 7.2), washed in RPMI-10 (standard RPMI growth medium, Sigma Chemical Co., St. Louis, Mo., supplemented with 10% fetal bovine serum) and viable cells counted using Trypan Blue exclusion. Human PBLs were isolated from blood using HISTOPAQUE™-1077, a solution of FICOLL™ and sodium diatrizoate (Sigma Chemical Co., St. Louis, Mo.), and subsequent washings with RPMI-5 (RPMI supplemented with 5% fetal bovine serum) to remove platelets. Isolated lymphocytes were resuspended in RPMI-10 and a viable cell yield determined by Trypan Blue exclusion.
Drugs and known mitogenic controls were added in triplicate to a 96-well flat bottom microplate aseptically. The culture medium was RPMI-10. Splenocytes or human-lymphocytes were added at a concentration of 3-4×10^5 cells/well, to a final volume of 200 μl/well. The assay plate was incubated at 37° C. in a 5% CO2 humidified incubator. At 48-50 hours, ^3H-thymidine was added (1 μCi/well), and the plate was harvested approximately 16-18 hours later.
Mitogen assay microplates were harvested using an Inotech plate harvester (Inotech Biosystems International, Inc., Rockville, Md.). Counts per minute (cpm) per well were measured using the Berthold-Inotech Trace 96-plate reader (Inotech AT, Wohlen, Switzerland) and/or a scintillation counter (Packard Tri-carb 2100TR, Packard Instrument Co., Meriden, Conn.). Mitogenic activity was directly determined by comparing cpm levels to controls.
To test whether PT stimulates mitogen activity, splenocytes were incubated for two days with IL-2 (50 units/ml) or KLH (20 μg/ml) in conjunction with PT in the concentrations shown. Figures represent the radioactivity counts of tritiated thymidine taken up during a subsequent 20-hour incubation period of cells incubated with tritiated thymidine in RPMI.

Pyrularia thionin (KSCCRNTWARNCYNVCRLPGTISREICAKKCDCKIISGTTCPSDYPK; ends and bridges not checked; also: labeled with 125I) [PT]
CPM of tritiated thymidine incorporated (0.003 μg/ml, RPMI + IL-2 50 units/ml): 2,656 ± 110 CPM
CPM of tritiated thymidine incorporated (0.003 μg/ml, RPMI + KLH 20 μg/ml): 3,957 ± 134 CPM
CPM of tritiated thymidine incorporated (0.003 μg/ml, RPMI): 230 ± 6 CPM
Cpm, standard mitogen assay (0.01 μg/ml PT, GM-CSF (5 ng/ml)): 1,767 Cpm
Cpm, standard mitogen assay (0.01 μg/ml PT, GM-CSF (20 ng/ml)): 1,254 Cpm
Cpm, standard mitogen assay (0.01 μg/ml PT, no GM-CSF, BALB C spleen cells): 287 Cpm
CPM of tritiated thymidine incorporated (0.01 μg/ml, KLH 20 μg/ml): 3,737 ± 134 CPM
CPM of tritiated thymidine incorporated (0.03 μg/ml, RPMI + IL-2 50 units/ml): 3,017 ± 107 CPM
CPM of tritiated thymidine incorporated (0.03 μg/ml, RPMI + KLH 20 μg/ml): 4,162 ± 200 CPM
CPM of tritiated thymidine incorporated (0.03 μg/ml, RPMI): 269 ± 57 CPM
Cpm, standard mitogen assay (0.1 μg/ml PT, GM-CSF (20 ng/ml)): 1,549 Cpm
CPM of tritiated thymidine incorporated (0.1 μg/ml, RPMI + IL-2 50 units/ml): 2,910 ± 351 CPM
CPM of tritiated thymidine incorporated (0.1 μg/ml, RPMI + KLH 20 μg/ml): 4,254 ± 140 CPM and 4,284 ± 140 CPM
CPM of tritiated thymidine incorporated (0.1 μg/ml, RPMI): 268 ± 74 CPM
CPM of tritiated thymidine incorporated (0.3 μg/ml, RPMI + IL-2 50 units/ml): 2,395 ± 103 CPM
CPM of tritiated thymidine incorporated (0.3 μg/ml, RPMI + KLH 20 μg/ml): 3,985 ± 101 CPM and 3,980 ± 101 CPM
CPM of tritiated thymidine incorporated (0.3 μg/ml, RPMI): 142 ± 10 CPM and 147 ± 10 CPM
CPM of tritiated thymidine incorporated (1.0 μg/ml, RPMI + IL-2 50 units/ml): 951 ± 122 CPM
CPM of tritiated thymidine incorporated (1.0 μg/ml, RPMI + KLH 20 μg/ml): 1,742 ± 154 CPM and 1,747 ± 154 CPM
CPM of tritiated thymidine incorporated (1.0 μg/ml, RPMI): 107 ± 25 CPM
